According to the METLIN SMRT retention time set (Domingo-Almenara et al. 2019):

Test: gradient 5% acetonitrile 3 min, to 50% in 2 min, to 85% in 15 min, held 3 min, 100 µL/min
Details: column: Zorbax Extend-C18 2.1 x 50 mm; eluents: water / acetonitrile, 0.1% formic acid
How it was run: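 Mixtures of ~100 pure standards were chromatographed on a Zorbax Extend-C18 column (2.1 × 50 mm, 1.8 μm) at 100 μL/min using water and acetonitrile, each with 0.1% formic acid. Detection used a quadrupole time-of-flight mass spectrometer in positive and negative ionization mode, and data collection spanned 3 months. Retention time was obtained from adduct peaks picked computationally and each checked manually.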

RP-LC retention time [s]	SMILES
924	CCCCNC(=O)Cn1nc2c3cc(-c4ccc(C)c(C)c4)nn3ccn2c1=O
1120	Cc1ccc(C2CC(=O)N(c3ccc(C(C)C)cc3)C(=O)C2)cc1
599	CC(C)N1CCN(S(=O)(=O)c2cc(-c3nnc(C4CC4)o3)co2)CC1
631	COc1cc(NC(C)=O)c2ncccc2c1NC(C)=O
552	CC(C)Cn1c(=O)c(C(=O)NCCN2CCCCC2)nc2cccnc21
752	CCCCN(CC)C(=O)C1CCCN(c2nccc(C)n2)C1 (centres undefined)
940	CCOc1cccc(CNS(=O)(=O)c2cc3c(s2)CCN(C(=O)C2CCC2)C3)c1
812	CN(CC1COCCO1)c1ccc(C(=O)O)cc1NC(=O)c1ccc(Cl)cc1 (centres undefined)
1110	CCN1C(=O)C2(CCN(S(=O)(=O)c3cc(C)ccc3C)CC2)c2ccccc21
645	O=C(NCCn1c(-c2ccncc2)nc2cccnc21)Nc1cccc(Cl)c1
929	Cc1ccc(S(=O)(=O)N2CCC(n3cnc4c(C)cccc4c3=O)CC2)cc1
957	COc1ccc(CNC(=O)C2CCN(c3nc(C4CCC4)nc4csc(C)c34)CC2)cc1OC
883	COC(=O)c1ccc(NC(=O)N2CC(Oc3cccc(-c4nc(C)no4)c3)C2)cc1
1000	Cc1noc(C)c1-c1ccc(S(=O)(=O)Nc2cccc(Br)c2)cc1
1010	CCN(CC)S(=O)(=O)c1ccc2c(c1)cc(C(=O)NCCc1c[nH]c3ccccc13)n2C
559	c1cnc(-c2n[nH]c(C3CCN(Cc4ccsc4)CC3)n2)cn1
806	COCCn1c(SCC(=O)Nc2nc3ccccc3s2)nc2c(c1=O)SC(C)C2 (centres undefined)
621	CCN1C(=O)C2CC3(CCN(Cc4ccc5cc[nH]c5c4)CC3)CN2C1=O (centres undefined)
722	C1CCc2nc3c(nc2C1)CCCC3
781	O=C(NCc1ccc(F)c(Cl)c1)C1CCN(c2ncnc3c2oc2ccccc23)CC1
810	O=C(NCc1ccc(F)cc1)c1ccc(-n2nc(N3CCCC3)ccc2=O)cc1
853	CCOCCn1c(=O)c2c(nc3n2CC(C)CN3c2ccc(OC)cc2)n(C)c1=O (centres undefined)

RP-LC retention time [s]	SMILES
1310	CCOC(=O)c1c(C)oc2ncnc(NC3CCCc4ccccc43)c12 (centres undefined)
730	COc1ccc(-c2nc3nc(C)cc(C)n3c2Nc2ccc(Cl)cc2)cc1
1150	Cc1ccccc1-c1noc(CN2C(=O)COc3cc(Cl)ccc32)n1
679	O=C(c1ccc(F)cc1)N1CCC2(CC1)OCC(C(=O)N1CCOCC1)N2C(=O)c1cccc(F)c1 (centres undefined)
1080	Cc1ccc(Cn2c(N3CCCC(C(=O)Nc4cccc(C)c4)C3)nc3ccsc3c2=O)cc1 (centres undefined)
960	Cc1cccc(C)c1OCC(=O)N(Cc1ccc(Br)o1)C1CCS(=O)(=O)C1 (centres undefined)
826	CCN1C(=O)c2cccnc2Sc2cc(NC(=O)c3cccc(OC)c3)ccc21
803	CCN1C(=O)c2cccnc2Sc2cc(C(=O)NCc3ccccc3F)ccc21
824	COc1cc(C(=O)Nc2nc(-c3ccc4c(c3)NC(=O)CO4)cs2)cc(OC)c1OC
911	CCc1ccccc1NC(=O)C1CCCN(S(=O)(=O)c2c[nH]c(C(=O)N3CCCCCC3)c2)C1 (centres undefined)
760	O=C(NCc1ccccc1)C1CCN(C(=O)c2ncn3c2COC(c2ccc(Cl)cc2)C3)CC1 (centres undefined)
1140	CCn1nnc(NCc2ccc(-c3cc(Cl)cc(Cl)c3)o2)n1
659	O=C(CN(C(=O)c1ccc(F)c(Cl)c1)C1CCCCC1)N1CCNCC1
1020	CCC(C)N1C(=O)CN(C2CCCCCC2)C(=O)C1c1ccccc1F (centres undefined)
770	Cc1cnc(-c2ccccc2C(C)C)nc1NCc1ccc(-n2ccnn2)cc1
1020	O=C(Cn1c(=O)oc2ccccc21)Nc1nc(-c2ccc(Cl)cc2)cs1
607	O=C(C1CCCN(S(=O)(=O)c2ccc(-c3ccn[nH]3)o2)C1)N1CCN(c2ccccn2)CC1 (centres undefined)
974	CC1CCN(c2ncc3c(n2)CCC(C(=O)NCCC2=CCCCC2)C3)CC1 (centres undefined)
599	Cc1nccn1C1CN(C(=O)C(C)Oc2ccccc2)C1 (centres undefined)
807	COc1ccc(-c2nnc(-c3ccc(OC)c(S(=O)(=O)N(C)C)c3)o2)cc1OC
1010	O=C(Nc1cccc(OCc2nnc(-c3ccc(Cl)cc3)o2)c1)c1ccsc1
579	Cc1cccc(Nc2ccc(N3CCN(C(=O)c4cccs4)CC3)nn2)n1

RP-LC retention time [s]	SMILES
617	Cc1cnn(CC(=O)N2CCc3nn(CC4CC4)c(=O)n3CC2)c1
914	Cc1ccc(NC(=O)C2CCCN2S(=O)(=O)c2cc3c(cc2C)NC(=O)C(C)O3)c(Cl)c1 (centres undefined)
946	O=C(CN1C(=O)CC(c2cccs2)=Nc2ccccc21)Nc1ccc(F)cc1F
909	Cc1ccccc1OCC(=O)N1CCC2(CC1)NC(=O)N(Cc1ccccc1Cl)C2=O
689	Cc1ccn2c(NC(=O)COc3ccccc3)c(-c3ccc(F)cc3)nc2c1
884	CC(C)c1ccc(-n2c3c(cc(C(=O)N4CCCCC4)c2=O)C(=O)CCC3)cc1
872	CC(Oc1ccc(-c2cnc3ccccc3n2)cc1)C(=O)N1CCN(c2ncccn2)CC1 (centres undefined)
588	O=C(Cn1cnc2c(nc3n2CCCCC3)c1=O)N1CCN(Cc2ccc3c(c2)OCO3)CC1
906	CCCOC(=O)C1=C(C)NC2=C(C(=O)C(C(=O)OC)C(C)C2)C1c1ccccc1OC (centres undefined)
1070	Cc1ccc(C)c(-c2csc(Nc3ccc(S(=O)(=O)Nc4cc(C)on4)cc3)n2)c1
833	COc1ccccc1NC(=O)Cn1c(=O)n(-c2ccc(F)cc2)c(=O)c2c1cc(C)n2C
840	COc1ccc(Nc2nc(N3CCN(c4ccc(F)cc4)CC3)nc3n[nH]nc23)cc1
1070	CCn1cc(C2=CCN(S(=O)(=O)c3cccc(Cl)c3)CC2)c2cccnc21
802	CC(C)(O)CC(=O)NCCn1ccc2ncnc(Nc3ccc(Oc4cccc(C(F)(F)F)c4)c(Cl)c3)c21
960	C=CCN1C(=O)C(C)(C)COc2ccc(NC(=O)Oc3ccccc3)cc21
721	O=C1NC(C(=O)Nc2cccc(Cl)c2)Cn2cccc21 (centres undefined)
832	O=C(NC1CCCCC1)C1CCCN(c2ccc3cc(S(=O)(=O)N4CCCCC4)ccc3n2)C1 (centres undefined)
781	CCOC(=O)N1CCC2(CC1)N=C(c1ccc(Cl)cc1)CC(c1cccc(OC)c1O)N2 (centres undefined)
860	O=C(NCCc1ccccc1)N1CCc2nc(-c3ccccc3)ncc2C1
900	O=C(Nc1cccc(C(F)(F)F)c1)C1CCc2nc(N3CCOCC3)ncc2C1 (centres undefined)
